Experimental data reported in ChEMBL document CHEMBL1145558, “3,5-Dihydro-imidazo[4,5-d]pyridazin-4-ones: a class of potent DPP-4 inhibitors” (Bioorg Med Chem Lett, 2008).

Assays:
[1] = target: T1, Muscarinic acetylcholine receptor M1 (Homo sapiens, UniProt P11229); test: Displacement of [N-methyl-3H]scopolamine from human recombinant muscarinic receptor M1 expressed in CHO cell membrane; assay type: cell membranes
T1 sequence (P11229 whole entry): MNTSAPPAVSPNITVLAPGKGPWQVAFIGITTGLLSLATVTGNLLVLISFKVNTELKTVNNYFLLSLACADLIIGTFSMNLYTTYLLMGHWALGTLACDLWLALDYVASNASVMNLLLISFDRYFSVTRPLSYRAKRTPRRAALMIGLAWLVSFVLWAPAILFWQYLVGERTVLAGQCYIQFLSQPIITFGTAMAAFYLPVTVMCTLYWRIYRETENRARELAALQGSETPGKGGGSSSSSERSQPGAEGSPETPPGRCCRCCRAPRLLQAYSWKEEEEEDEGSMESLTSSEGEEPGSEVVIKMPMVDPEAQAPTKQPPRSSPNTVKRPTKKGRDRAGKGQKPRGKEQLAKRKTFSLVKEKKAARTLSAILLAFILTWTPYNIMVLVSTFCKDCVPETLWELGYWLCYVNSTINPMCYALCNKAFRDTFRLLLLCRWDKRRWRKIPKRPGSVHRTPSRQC

[2] = species on record: Rattus norvegicus; test: animal or person; details: Plasma, po, 7 h, read-out: Inhibition
Description: Ex vivo inhibition of DPP4 in rat plasma at 10 mg/kg, po after 7 hrs

[3] = target: T2, Cytochrome P450 1A2 (Homo sapiens, UniProt P05177); test: Inhibition of CYP1A2; assay type: ADME
T2 sequence (P05177 whole entry): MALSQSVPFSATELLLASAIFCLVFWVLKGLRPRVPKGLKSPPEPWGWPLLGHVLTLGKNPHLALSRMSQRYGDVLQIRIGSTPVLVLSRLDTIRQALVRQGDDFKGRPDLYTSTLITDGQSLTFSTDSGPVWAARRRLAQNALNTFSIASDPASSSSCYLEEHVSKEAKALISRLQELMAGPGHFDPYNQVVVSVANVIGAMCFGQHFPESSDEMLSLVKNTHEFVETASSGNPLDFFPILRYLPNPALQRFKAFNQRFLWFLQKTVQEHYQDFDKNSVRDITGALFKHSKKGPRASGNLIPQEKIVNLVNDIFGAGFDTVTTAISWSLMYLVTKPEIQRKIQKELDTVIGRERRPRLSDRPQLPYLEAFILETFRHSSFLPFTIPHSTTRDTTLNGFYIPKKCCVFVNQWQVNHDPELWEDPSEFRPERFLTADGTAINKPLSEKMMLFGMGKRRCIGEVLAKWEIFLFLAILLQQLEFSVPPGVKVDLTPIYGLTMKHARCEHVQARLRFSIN

[4] = target: hERG (KCNH2) (Homo sapiens, UniProt Q12809); test: Inhibition of human ERG assessed as channel current activity at 1 uM; set-up: scale not given: the % may be the effect or the level left; details: read-out: Activity
[5] = target: Cytochrome P450 2D6 (Homo sapiens, UniProt P10635); test: Inhibition of CYP2D6; assay type: ADME
[6] = Clearance in rat; assay type: ADME, organism-based; details: in vivo
[7] = Mean residence time in rat; assay type: ADME, organism-based; details: in vivo
[8] = Metabolic stability in human liver microsomes assessed as half life; assay type: ADME, Microsome
[9] = Oral bioavailability in rat; assay type: ADME, organism-based; details: in vivo
[10] = target: Cytochrome P450 2C19 (Homo sapiens, UniProt P33261); test: Inhibition of CYP2C19; assay type: ADME
[11] = target: Cytochrome P450 3A4 (Homo sapiens, UniProt P08684); test: Inhibition of CYP3A4; assay type: ADME
[12] = target: Cytochrome P450 2C9 (Homo sapiens, UniProt P11712); test: Inhibition of CYP2C9; assay type: ADME
[13] = Volume of distribution at steady state in rat; assay type: ADME, organism-based; details: in vivo, read-out: Vdss
[14] = Metabolic stability in human liver cytosol assessed as half life; assay type: ADME, tissue-based
[15] = tested on: Rattus norvegicus; test: Ex vivo inhibition of DPP4 in rat plasma at 10 mg/kg, po after 24 hrs; assay type: functional; set-up: scale not given: the % may be the effect or the level left

Cytochrome P450 2D6, sequence (P10635 whole entry): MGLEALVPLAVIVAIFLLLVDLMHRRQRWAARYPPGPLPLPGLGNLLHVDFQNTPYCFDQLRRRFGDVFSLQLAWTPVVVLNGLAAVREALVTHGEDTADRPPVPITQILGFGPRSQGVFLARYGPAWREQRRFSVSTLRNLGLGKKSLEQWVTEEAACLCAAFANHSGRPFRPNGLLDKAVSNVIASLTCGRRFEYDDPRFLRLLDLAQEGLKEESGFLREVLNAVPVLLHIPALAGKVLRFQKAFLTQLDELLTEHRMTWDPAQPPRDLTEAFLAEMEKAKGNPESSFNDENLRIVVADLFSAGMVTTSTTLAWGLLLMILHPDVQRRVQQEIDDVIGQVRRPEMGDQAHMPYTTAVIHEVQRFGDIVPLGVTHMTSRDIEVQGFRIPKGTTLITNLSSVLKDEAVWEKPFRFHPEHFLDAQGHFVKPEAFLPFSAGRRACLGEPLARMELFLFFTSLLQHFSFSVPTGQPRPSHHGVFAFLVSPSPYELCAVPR
Cytochrome P450 3A4, sequence (P08684 whole entry): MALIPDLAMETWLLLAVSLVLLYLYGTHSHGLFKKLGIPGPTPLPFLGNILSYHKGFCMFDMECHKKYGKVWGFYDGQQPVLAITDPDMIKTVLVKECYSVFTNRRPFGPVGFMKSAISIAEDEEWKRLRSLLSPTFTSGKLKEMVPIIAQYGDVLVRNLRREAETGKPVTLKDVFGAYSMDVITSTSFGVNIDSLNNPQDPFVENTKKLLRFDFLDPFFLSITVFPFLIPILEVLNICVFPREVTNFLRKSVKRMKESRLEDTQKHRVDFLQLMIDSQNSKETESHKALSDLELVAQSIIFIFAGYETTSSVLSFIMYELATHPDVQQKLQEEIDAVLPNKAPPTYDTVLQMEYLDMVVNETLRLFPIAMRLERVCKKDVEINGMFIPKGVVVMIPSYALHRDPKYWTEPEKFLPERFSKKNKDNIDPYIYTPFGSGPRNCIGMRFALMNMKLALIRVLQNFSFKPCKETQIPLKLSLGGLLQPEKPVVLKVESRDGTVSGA
Cytochrome P450 2C9, sequence (P11712 whole entry): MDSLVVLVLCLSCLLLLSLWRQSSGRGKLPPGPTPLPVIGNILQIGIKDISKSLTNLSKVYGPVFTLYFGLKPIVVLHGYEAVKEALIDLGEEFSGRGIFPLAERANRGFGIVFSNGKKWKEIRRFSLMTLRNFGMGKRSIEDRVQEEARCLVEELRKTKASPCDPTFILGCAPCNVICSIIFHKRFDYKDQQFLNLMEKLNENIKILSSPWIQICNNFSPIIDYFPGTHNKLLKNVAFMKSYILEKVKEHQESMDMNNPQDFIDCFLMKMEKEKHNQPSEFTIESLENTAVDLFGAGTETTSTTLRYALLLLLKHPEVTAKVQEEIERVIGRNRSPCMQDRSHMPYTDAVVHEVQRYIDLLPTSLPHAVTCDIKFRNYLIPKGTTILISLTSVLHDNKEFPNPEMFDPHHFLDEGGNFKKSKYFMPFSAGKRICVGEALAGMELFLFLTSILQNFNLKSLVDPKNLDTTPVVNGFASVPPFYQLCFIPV
Cytochrome P450 2C19, sequence (P33261 whole entry): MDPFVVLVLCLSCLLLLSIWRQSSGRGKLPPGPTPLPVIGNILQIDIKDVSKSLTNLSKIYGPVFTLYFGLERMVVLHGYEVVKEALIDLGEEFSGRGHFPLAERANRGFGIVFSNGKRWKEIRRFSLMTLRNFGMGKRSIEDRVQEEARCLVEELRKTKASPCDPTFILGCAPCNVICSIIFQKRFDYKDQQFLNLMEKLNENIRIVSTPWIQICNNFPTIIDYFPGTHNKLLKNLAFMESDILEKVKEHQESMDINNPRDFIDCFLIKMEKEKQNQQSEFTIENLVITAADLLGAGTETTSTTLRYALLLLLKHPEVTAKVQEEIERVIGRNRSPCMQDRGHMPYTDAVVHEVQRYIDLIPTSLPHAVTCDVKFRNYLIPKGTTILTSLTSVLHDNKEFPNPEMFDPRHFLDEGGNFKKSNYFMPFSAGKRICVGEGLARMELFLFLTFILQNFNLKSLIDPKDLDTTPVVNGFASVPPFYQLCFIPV
hERG (KCNH2), sequence (Q12809 whole entry): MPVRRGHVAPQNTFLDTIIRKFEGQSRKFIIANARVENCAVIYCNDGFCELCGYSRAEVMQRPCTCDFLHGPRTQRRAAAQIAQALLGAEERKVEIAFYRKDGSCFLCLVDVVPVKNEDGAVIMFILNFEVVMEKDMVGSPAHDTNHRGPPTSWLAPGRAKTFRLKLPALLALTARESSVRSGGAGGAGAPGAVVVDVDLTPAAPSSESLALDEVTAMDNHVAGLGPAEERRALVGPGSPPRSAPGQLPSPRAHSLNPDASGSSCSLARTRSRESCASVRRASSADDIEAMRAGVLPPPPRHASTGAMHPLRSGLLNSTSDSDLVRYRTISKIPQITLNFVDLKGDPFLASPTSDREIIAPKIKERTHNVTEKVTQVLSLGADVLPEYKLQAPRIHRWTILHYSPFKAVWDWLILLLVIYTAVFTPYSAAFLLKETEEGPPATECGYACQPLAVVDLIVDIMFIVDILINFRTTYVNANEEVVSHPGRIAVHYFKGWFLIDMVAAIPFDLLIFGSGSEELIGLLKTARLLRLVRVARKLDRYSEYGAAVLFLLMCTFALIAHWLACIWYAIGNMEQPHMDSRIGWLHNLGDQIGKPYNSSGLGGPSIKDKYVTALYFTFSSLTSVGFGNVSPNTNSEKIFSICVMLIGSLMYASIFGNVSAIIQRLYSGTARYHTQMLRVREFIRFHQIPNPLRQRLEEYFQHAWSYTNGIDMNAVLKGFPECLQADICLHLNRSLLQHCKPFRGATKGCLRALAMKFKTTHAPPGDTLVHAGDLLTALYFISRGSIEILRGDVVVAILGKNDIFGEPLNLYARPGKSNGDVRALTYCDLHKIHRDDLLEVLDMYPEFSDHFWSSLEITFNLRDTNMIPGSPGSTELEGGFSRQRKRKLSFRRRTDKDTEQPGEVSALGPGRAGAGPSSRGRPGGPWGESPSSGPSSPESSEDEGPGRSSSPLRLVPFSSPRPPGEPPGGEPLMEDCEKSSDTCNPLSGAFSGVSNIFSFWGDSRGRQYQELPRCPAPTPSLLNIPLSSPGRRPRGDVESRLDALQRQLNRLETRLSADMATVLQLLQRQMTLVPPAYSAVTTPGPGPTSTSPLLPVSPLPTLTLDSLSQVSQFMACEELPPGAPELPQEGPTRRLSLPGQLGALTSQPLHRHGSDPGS

SMILES | IC50 [1] | inhibition in vivo at 10 mg/kg [2] | other results
CC#CCn1c(NC[C@H](C)N)nc2cnn(Cc3nc(C)c4ccccc4n3)c(=O)c21 | > 5000 nM | 50% | 
CC#CCn1c(N2CCCC(N)C2)nc2cnn(CC3=Nc4ccccc4Oc4ccccc43)c(=O)c21 (centres undefined) | 5610 nM | 73% | 
CC#CCn1c(N2CCCC(N)C2)nc2cnn(CC(=O)c3ccccc3)c(=O)c21 (centres undefined) |  | 8% | 
CC#CCn1c(NCCN)nc2cnn(Cc3nc(C)c4ccccc4n3)c(=O)c21 | > 5000 nM | 29% | 
CC#CCn1c(N2CCCC(N)C2)nc2cnn(Cc3nc4ccccc4o3)c(=O)c21 (centres undefined) |  | 64% | 
CC#CCn1c(N2CCC[C@H](N)C2)nc2cnn(CC3=Nc4ccccc4Oc4ccccc43)c(=O)c21 |  | 9% | 
CC#CCn1c(N2CCC[C@@H](N)C2)nc2cnn(CC3=Nc4ccccc4Oc4ccccc43)c(=O)c21 | > 5000 nM | 63% | 
CC#CCn1c(N2CCCC(N)C2)nc2cnn(Cc3ccc(C#N)c4ccccc34)c(=O)c21 (centres undefined) | 862 nM | 84% | 

Now from value to molecule, other results behind:

IC50 [1] | SMILES | inhibition in vivo at 10 mg/kg [2] | other results
93 nM | CC#CCn1c(N2CCC[C@@H](N)C2)nc2c(C)nn(Cc3nc(C)c4ccccc4n3)c(=O)c21 | 76% | 
954 nM | CC#CCn1c(N2CCCNCC2)nc2cnn(Cc3nc(C)c4ccccc4n3)c(=O)c21 | 20% | 
1190 nM | CC#CCn1c(N2CCC[C@@H](N)C2)nc2cnn(Cc3nc(C)c4ccccc4n3)c(=O)c21 | 80% | Inhibition [3]: > 50 µM; activity at 1 µM [4]: 88%; Inhibition [5]: > 50 µM; clearance [6]: 56 mL/min/kg; MRT [7]: 8.8 h; half-life [8]: > 1.5 h; bioavailability [9]: 15%; Inhibition [10]: > 50 µM; Inhibition [11]: > 50 µM; Inhibition [12]: > 50 µM; Vd [13]: 40 L/kg; half-life [14]: > 1.5 h; Activity [15]: 71%
2800 nM | CC#CCn1c(N2CCNCC2)nc2cnn(Cc3nc(C)c4ccccc4n3)c(=O)c21 | 45% | 
